Target: T1, polycystin-2 channels (Mus musculus, UniProt O35245)
T1 construct: the mouse channel orthologue under endogenous expression in the kidney collecting duct; endogenous in cells; host or cells: primary inner medullary collecting duct (pIMCD) cells of ARL13B-EGFP mice
T1 sequence (O35245 1-966): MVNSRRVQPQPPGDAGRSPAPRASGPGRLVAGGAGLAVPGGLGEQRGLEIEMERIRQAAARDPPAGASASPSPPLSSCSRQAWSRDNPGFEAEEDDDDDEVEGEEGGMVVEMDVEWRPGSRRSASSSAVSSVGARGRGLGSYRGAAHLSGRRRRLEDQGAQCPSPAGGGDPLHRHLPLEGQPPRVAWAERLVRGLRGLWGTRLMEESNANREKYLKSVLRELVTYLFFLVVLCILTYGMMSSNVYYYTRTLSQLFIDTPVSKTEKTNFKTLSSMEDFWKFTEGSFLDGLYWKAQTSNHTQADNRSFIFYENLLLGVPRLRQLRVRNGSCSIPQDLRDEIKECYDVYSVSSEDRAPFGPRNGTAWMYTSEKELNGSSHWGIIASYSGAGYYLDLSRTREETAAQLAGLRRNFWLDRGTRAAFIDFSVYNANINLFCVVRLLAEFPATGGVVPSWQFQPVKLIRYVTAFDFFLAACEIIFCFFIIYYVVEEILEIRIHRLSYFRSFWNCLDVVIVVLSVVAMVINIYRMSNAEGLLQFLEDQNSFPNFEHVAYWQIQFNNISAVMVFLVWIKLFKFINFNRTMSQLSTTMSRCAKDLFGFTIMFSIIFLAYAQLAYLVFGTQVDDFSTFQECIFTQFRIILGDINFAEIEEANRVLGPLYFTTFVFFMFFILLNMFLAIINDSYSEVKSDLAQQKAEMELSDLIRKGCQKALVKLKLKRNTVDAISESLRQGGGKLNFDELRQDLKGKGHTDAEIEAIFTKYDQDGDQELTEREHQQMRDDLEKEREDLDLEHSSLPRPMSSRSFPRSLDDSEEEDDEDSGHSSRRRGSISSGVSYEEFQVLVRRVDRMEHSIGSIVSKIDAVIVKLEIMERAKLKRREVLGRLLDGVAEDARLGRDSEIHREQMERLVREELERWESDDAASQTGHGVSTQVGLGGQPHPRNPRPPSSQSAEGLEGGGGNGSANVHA
Test: Inside-out cilia patch of pIMCD cells, calcium opening of polycystin-2 channels
Type: cell-based
Settings: Pkd2+/+ mice; read-out: EC50, potency of calcium opening polycystin-2 channels
Procedure: Cell culture of primary inner medullary collecting duct cells and immortalized cell lines. Primary inner medullary collecting ducts cells (pIMCD) were isolated from WT or Pkd2^del-Z/del-Z mice co-expressing the ARL13B-EGFP cilia reporter using the previously described method (Liu et al., 2018). Briefly, inner medullae were removed from the kidney and disassociated using a Dulbecco's phosphate buffered solution (DPBS) containing 2 mg/ml collagenase A and 1 mg/ml hyaluronidase. After mechanical disassociation on ice, medullary cells were cultured in Dulbecco's modified essential medium (DMEM) supplemented with 10% fetal bovine serum (FBS) and 100 units/ml penicillin/100 μg/ml streptomycin. Cilia were patched from cells within 6 days after isolation and within one passage. HEK PKD2^Null cell lines were generated using the CRISPR/Cas9 gene editing kit available from Addgene and authenticated using PCR analysis, as previously described (Liu et al., 2018). […]
Electrophysiology. The electrophysiologist was blinded by a third party in the laboratory, where test groups were assigned a letter to conceal the genetic identity of the cells being evaluated. […] Ciliary ion currents were recorded using borosilicate glass electrodes polished to resistances of 14-23 MΩ using the cilium patch method previously described (Vien et al., 2020). Single channel currents measured in the inside-out configuration were recorded in symmetrical sodium concentrations. […] Calcium was buffered with 5 EGTA (ethylene glycol-bis(o-aminoethyl ether)-N,N,N′,N′-tetraacetic acid), 5 Na4-BAPTA (Glycine, N, N′-[1,2-ethanediylbis(oxy-2,1-phenylene)]bis[N-(carboxymethyl)]-,tetrasodium) and 0.5 EDTA […]; free calcium was calculated using Maxchilator and titration of 1 M CaCl2) solution (Bers et al., 2010); pH was adjusted to 7.3 using NaOH. […] Whole cell currents used to measure CDD were also recorded in symmetrical sodium concentration, placing the internal recording solution in the pipette electrode and the external recording solution in the bath. […]

Structure (SMILES): [Ca+2] [Ca^2+, calcium]
- EC50: 1200 ± 400 nM

Reference: US20210369677A1, “SMALL MOLECULE ACTIVATORS OF POLYCYSTIN-2 (PKD2) AND USES THEREOF” (Northwestern University, priority 2020, published 2021)
